Measured values: ChEMBL document CHEMBL1132759, “The flavanolignan silybin and its hemisynthetic derivatives, a novel series of potential modulators of P-glycoprotein” (Bioorg Med Chem Lett, 2000)

How the values were obtained:
[1] = biological target: ATP-dependent translocase ABCB1 (Mus musculus, UniProt P21447); experiment: Compound was tested for the binding affinity towards recombinant NBD2 C-terminal cytosolic nucleotide-binding domain of mouse P-Glycoprotein
[2] = Change in Fmax was determined; assay type: functional

ATP-dependent translocase ABCB1, sequence (P21447 whole entry, the tested form may be a part): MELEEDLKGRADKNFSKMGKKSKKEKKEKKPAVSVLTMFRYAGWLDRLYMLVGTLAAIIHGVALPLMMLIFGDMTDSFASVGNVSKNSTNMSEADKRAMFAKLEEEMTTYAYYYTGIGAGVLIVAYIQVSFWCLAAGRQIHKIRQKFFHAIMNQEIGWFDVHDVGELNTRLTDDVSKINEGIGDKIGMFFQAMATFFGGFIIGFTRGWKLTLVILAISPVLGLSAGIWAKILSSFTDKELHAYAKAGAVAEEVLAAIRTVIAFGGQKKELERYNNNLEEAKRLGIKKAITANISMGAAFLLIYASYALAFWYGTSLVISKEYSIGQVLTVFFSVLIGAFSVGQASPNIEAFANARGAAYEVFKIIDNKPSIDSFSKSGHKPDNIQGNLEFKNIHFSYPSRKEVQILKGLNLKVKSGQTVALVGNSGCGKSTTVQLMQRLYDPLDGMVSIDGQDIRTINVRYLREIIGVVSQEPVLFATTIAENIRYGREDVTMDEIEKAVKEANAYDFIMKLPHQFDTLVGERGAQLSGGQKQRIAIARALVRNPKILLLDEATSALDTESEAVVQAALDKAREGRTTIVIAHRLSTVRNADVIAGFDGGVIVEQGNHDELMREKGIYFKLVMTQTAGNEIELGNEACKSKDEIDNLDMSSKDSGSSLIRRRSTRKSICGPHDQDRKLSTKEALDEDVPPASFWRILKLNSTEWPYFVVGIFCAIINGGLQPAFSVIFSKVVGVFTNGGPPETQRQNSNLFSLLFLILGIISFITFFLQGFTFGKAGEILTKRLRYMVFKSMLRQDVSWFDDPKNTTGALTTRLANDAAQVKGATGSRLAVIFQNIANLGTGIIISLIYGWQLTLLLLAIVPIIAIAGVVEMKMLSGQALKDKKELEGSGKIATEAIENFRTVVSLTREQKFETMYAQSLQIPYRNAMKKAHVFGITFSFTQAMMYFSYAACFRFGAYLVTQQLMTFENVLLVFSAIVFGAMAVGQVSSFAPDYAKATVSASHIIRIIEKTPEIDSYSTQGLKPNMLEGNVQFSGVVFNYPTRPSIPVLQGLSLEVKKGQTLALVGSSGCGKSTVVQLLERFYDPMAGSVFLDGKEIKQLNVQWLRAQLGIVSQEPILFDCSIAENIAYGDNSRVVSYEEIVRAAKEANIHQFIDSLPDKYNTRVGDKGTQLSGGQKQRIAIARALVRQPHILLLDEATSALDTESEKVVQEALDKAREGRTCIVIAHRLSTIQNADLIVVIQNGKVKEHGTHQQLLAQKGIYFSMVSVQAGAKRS

`O=C1C[C@@H](c2ccc(O)cc2)Oc2cc(O)cc(O)c21` [NARINGENIN] gave a Kd [1] of 28500 nM.
With `COc1cc(C2Oc3cc(-c4oc5c(C/C=C(\C)CCC=C(C)C)c(O)cc(O)c5c(=O)c4O)ccc3OC2CO)ccc1O` (centres undefined) the Delta Fmax [2] was 88.1% and the Kd [1] was 120 nM.
Compound `COc1cc(C2Oc3cc(-c4oc5cc(O)cc(O)c5c(=O)c4O)ccc3OC2CO)ccc1O` (centres undefined) has a Delta Fmax [2] of 91%.
Work on `COc1cc(C2Oc3cc([C@H]4Oc5cc(O)cc(O)c5C(=O)[C@@H]4O)ccc3OC2CO)ccc1O` (some centres undefined) [SILIBININ] yielded a Delta Fmax [2] of 91% and a Kd [1] of 6800 nM.
In the case of `COc1cc(C2Oc3cc(-c4oc5c(CC=C(C)C)c(O)cc(O)c5c(=O)c4O)ccc3OC2CO)ccc1O` (centres undefined), the Delta Fmax [2] is reported as 93.4% and the Kd [1] is reported as 250 nM.
Work on `O=C1c2c(O)cc(O)cc2O[C@H](c2ccc(O)c(O)c2)[C@H]1O` yielded a Delta Fmax [2] of 101%.
With `COc1cc(C2Oc3cc(-c4oc5cc(O)c(CC=C(C)C)c(O)c5c(=O)c4O)ccc3OC2CO)ccc1O` (centres undefined) the Delta Fmax [2] was 90.3% and the Kd [1] was 370 nM.
`COc1cc(C2Oc3cc(-c4oc5cc(O)c(C/C=C(\C)CCC=C(C)C)c(O)c5c(=O)c4O)ccc3OC2CO)ccc1O` (centres undefined) showed a Delta Fmax [2] of 83.3% and a Kd [1] of 180 nM.
In the case of `COc1ccc(-c2oc3cc(O)cc(O)c3c(=O)c2O)cc1` [KAEMPFERIDE], the Kd [1] is reported as 4500 nM.
